From patent US5643893A, “N-substituted-(Dihydroxyboryl)alkyl purine, indole and pyrimidine derivatives, useful as inhibitors of inflammatory cytokines” (Macronex, Inc., priority 1994, dated 1997)
Blank lines part the entries; values can stand above or below the molecule they belong to.

What was measured:
[1] = test system: latent HIV-1 in a monocytoid (U1) cell line; conditions: cited from earlier work
TNF-α = conditions: cited from earlier work
[2] = test system: HIV-1 in peripheral blood mononuclear cells; conditions: advanced HIV-1 infection and AIDS; cited from earlier work
HIV-1 = conditions: 12 weeks, p<0.05; cited from earlier work
PBMC [3] = test: PBMC proliferation to mitogen PHA; type: cell-based; conditions: Homo sapiens, effect INHIB (Inhibition), PHA 1.0 μg/ml
Procedure: (§1) Unless otherwise described the medium for human cell culture assays is defined as follows: RPMI-1640 is supplemented with 100 U/ml penicillin, 100 μg/ml streptomycin, 2 mM L-glutamine; 1 mM Na pyruvate; 1% MEM non-essential amino acids and 25 mM HEPES; (all from GIBCO, Gaithersburg, Md.). Complete medium is defined as medium supplemented with 5% pooled, heat-inactivated (56° C., 30 minutes) human AB serum (Pel-freeze, Brown Deer, Wis.).
Human Peripheral Blood Mononuclear Cell (PBMC) Isolation:
Venous blood is obtained from healthy volunteers and mixed with an equal volume of sterile isotonic saline/10 mM HEPES and placed into 50 ml conical polypropylene tubes in 30 ml aliquots. Each aliquot of diluted blood is underlaid with 20-25 ml of sterile Lymphocyte Separation Medium (LSM; Organon-Technika, Durham, N.C.). The tubes are centrifuged at 400 g for 40 minutes at room temperature. […] Cell concentrations for each donor are determined by counting in an haematology analyser (Serono-Baker). […]
PBMC are adjusted to 4×10^6 /ml in complete medium. […] The contents of the wells are harvested onto glass fibre filters using a multiple automated sample harvester (Tomtec), and the incorporated ^3 H-thymidine determined by liquid scintillation spectrophotometry and represented an cpm (counts per minute) incorporated per well.

PBMC [4] = test: Two-way mixed lymphocyte reaction (MLR); type: cell-based; conditions: Homo sapiens, effect INHIB (Inhibition)
Procedure: as §1
Two-Way Mixed Lymphocyte Reaction (MLR):
PBMC are prepared as described for the mitogen assays, but resuspended to 2×10^6 cells/ml in complete medium. Fifty μl of cell suspension from two different individuals is then added to each well of a 96-well flat bottom tissue culture plate. An additional 100 μl of complete medium, dexamethasone or test compounds are then added to each well, the plates are incubated for 6 days at 37° C., and then pulsed with ^3 H-thymidine and harvested as previously described.

GM-CSF = test: Monocyte release of GM-CSF; type: cell-based; conditions: Homo sapiens, effect INHIB (Inhibition), LPS 100 ng/ml
IL1β = test: Monocyte release of IL-1β; type: cell-based, human; parameters: key: NE: No effect; NT: Not tested; INHIB: Inhibition; STIM: Stimulation; TC: Tolerated Concentration; conditions: LPS 100 ng/ml
IL1ra = test: Monocyte release of IL-1 receptor antagonist; type: cell-based, human; parameters: key: NE: No effect; NT: Not tested; INHIB: Inhibition; STIM: Stimulation; TC: Tolerated Concentration
IL6 = test: Monocyte release of IL-6; type: cell-based, human; parameters: key: NE: No effect; NT: Not tested; INHIB: Inhibition; STIM: Stimulation; TC: Tolerated Concentration; conditions: LPS 100 ng/ml
IL8 = test: Monocyte release of IL-8; type: cell-based, human; parameters: key: NE: No effect; NT: Not tested; INHIB: Inhibition; STIM: Stimulation; TC: Tolerated Concentration; conditions: LPS 100 ng/ml
TNFα = test: Monocyte release of TNF-α; type: cell-based; conditions: Homo sapiens, effect INHIB (Inhibition), LPS 100 ng/ml
TISSUE FACTOR = test: Monocyte procoagulant activity (Tissue Factor); type: cell-based; conditions: Homo sapiens, effect INHIB (Inhibition)
Procedure: Purified monocytes prepared as described above are suspended at 4×10^6 cells/ml in complete medium. To each well of a 48-well flat bottomed tissue culture plate is added 0.125 ml of cell suspension. Test materials (diluted in complete medium at 2× the desired final concentration) are added in 250 μl volumes to each well. Control wells receive 250 μl of complete medium or 250 μl of IL-4 (diluted to×2 the desired final concentration of 50 ng/ml). All samples are tested at four concentrations in the presence or absence of 100 ng/ml LPS (125 μl of 4× desired final concentration added) and incubated at 37° C. in humidified 5% CO2, for 16 hours. At this time, culture supernatants are aspirated off, and the unattached cells and cell debris are removed by a 2 minute spin in a microcentrifuge at 10,000 g.l The release of cytokines and growth factors is determined in the cell-free supernatants using ELISA capture assays. In this way, testing for IL-1β, TNF-α, IL-1 receptor antagonist, IL-6, IL-8, GM-CSF and PDGF is conducted.
Monocyte Procoagulant Activity (Tissue Factor):
The adhered monocytes remaining on the 48-well tissue culture plates after removal of the supernatants above, are used to measure levels of Tissue Factor production. The cells are solubilized overnight at 4° C. in 10% Triton-×100 in PBS, diluted to 1% Triton-×100 with PBS then assayed by ELISA for Tissue Factor.

LTB4 = test: Monocyte release of LTB4; type: cell-based; conditions: Homo sapiens, effect INHIB (Inhibition), zymosan A
Procedure: (§2) Monocyte Release of PGE2, LTB4, and PAF:
(§3) Monocytes isolated as described above, were washed and resuspended in RPMl containing 5 mg/ml HSA at 2×10^6 cells/ml and added to wells of a 48-well plates. The cells were allowed to adhere for 2 hours then washed in HBSS-BSA-HEPES buffer. Test materials were added at four concentrations (175 μl) for 60 minutes; then the monocytes were stimulated by addition of […] zymosan A (175 μl of 2× desired final concentration added). Supernatant medium was collected from the wells after 90 minutes incubation and stored at -20° C. until assayed. Supernatants were assayed for PGE2, LTB4 or PAF using specific scintillation proximity assays (SPA).

PAF = test: Monocyte release of PAF; type: cell-based, human; parameters: key: NE: No effect; NT: Not tested; INHIB: Inhibition; STIM: Stimulation; TC: Tolerated Concentration; conditions: zymosan A
Procedure: as §2, §3

SUPEROXIDE = test: Monocyte superoxide anion (O2) release; type: cell-based, human; parameters: key: NE: No effect; NT: Not tested; INHIB: Inhibition; STIM: Stimulation; TC: Tolerated Concentration; conditions: zymosan A
Procedure: Monocyte Superoxide Anion (O2) Release:
Monocytes are prepared as described above and resuspended to 5×10^6 /ml in HBSS containing 10 Mm HEPES, 2 g/l glucose, 0.1% BSA, Ph 7.2. To each well of a 96-well flat bottom, tissue culture plate is added 100 μl of cell suspension and 100 μl of buffer or test materials. Samples are run in quadruplicate. The plate is incubated for 60 minutes at 37° C. followed by the addition of 50 μl of buffer containing cytochrome C (5 mg/ml; type VI, horse heart, Sigma) and bovine liver catalase (1500 U/ml; Sigma) in the presence of zymosan A (ZYM); 750 μg/ml; Sigma). The plate is incubated an additional 120 minutes at 37° C. during which the absorbance at 550 nm is monitored using a microplate reader incorporating dedicated software for kinetic analysis (Molecular Devices; Menlo Park, Calif.).

Monocytes = test: Inhibition of monocyte chemotaxis; type: cell-based, human; parameters: key: NE: No effect; NT: Not tested; INHIB: Inhibition; STIM: Stimulation; TC: Tolerated Concentration; conditions: chemoattractant FMLP
Procedure: Inhibition of Monocyte Chemotaxis:
Monocytes are prepared as previously described, and resuspended at 5×10^6 cells/ml in HBSS, 0.1% BSA (HBSS-BSA). Fluorophore labeling of the cells is carried out by adding calcein-AM to the above cells at a final concentration of 2 μM. Following a 30 minute incubation at 37° C. in humidified 5% CO2, the labeled monocytes are washed twice and incubated in a range of dilutions of the test materials for 60 minutes at 37° C. in humidified 5% CO2. The pre-treated, calcein-AM loaded cells are then added in triplicate to the wells of the top compartment of a NeuroProbe (Cabin, John, M.D.) 96-well chemotaxis chamber (2×10^5 cells/well) and permitted to migrate through a 10 μm thick bonded polycarbonate membrane (5 μm porosity; NeuroProbe Inc; Cabin, John, M.D.) towards the wells of the lower compartment containing the chemoattractant (FMLP) at 5×10^-9 M. After a 90 minute incubation at 37° C. in a humidified chamber, the wells of the upper chambers are aspirated, the monocyte-associated membrane removed, non-migrating cells wiped off and the filters permitted to air dry to 15 minutes. The number of cells migrating through the membranes are quantified by measuring the fluorescent intensity of the migrating cells in a fluorescent microplate reader (CytoFluor 2300, Millipore Corp., Bedford, Mass.)

MTS = type: cell-based; conditions: printed in the EC50 column; effect TC; read-out: TC Tolerated Concentration (MTS)
LDH = type: cell-based; conditions: printed in the EC50 column; effect TC; read-out: TC Tolerated Concentration (LDH)

Compound: O=C1CCC(N2C(=O)c3ccccc3C2=O)C(=O)N1 (centres unmarked) [Thalidomide]
activation of latent HIV-1 [1]: suppress the activation of latent HIV-1
agonist-induced TNF-α protein and mRNA production (TNF-α): reduction
inhibition of activation of virus in PBMC, patients [2]: 16 out of 17

Compound: CC(=O)CCCCn1c(=O)c2c(ncn2C)n(C)c1=O [Pentoxifylline]
mean HIV-1 viral load (levels with either agent alone) (HIV-1): 8- to 9 fold

EC50 (GM-CSF): 6.8 µM
EC50 (TNFα): 570 nM
EC50 (TISSUE FACTOR): 2100 nM
EC50 (LTB4): 90.5 µM
Compound: Nc1nc(Cl)c2ncn(CCCCB(O)O)c2n1 [2-Amino-6-chloro-9-(4-dihydroxyborylbutyl)purine]
EC50 (PBMC [3]): 100 µM
EC50 (PBMC [4]): 50 µM
EFFECT (IL1β) (IL1β): NE
EFFECT (IL1ra) (IL1ra): NE
EFFECT (IL6) (IL6): NE
EFFECT (IL8) (IL8): NE
EFFECT (PAF) (PAF): NE
EFFECT (SUPEROXIDE) (SUPEROXIDE): NE
EFFECT (CHEMOTAXIS) (Monocytes): NE
MNTC (MTS): 100 µM
MNTC (LDH): 100 µM

Compound: Cc1cn([C@H]2C[C@H](N=[N+]=[N-])[C@@H](CO)O2)c(=O)[nH]c1=O [zidovudine]
mean HIV-1 viral load (levels with either agent alone) (HIV-1): 8- to 9 fold
